Measured values published in publication PMC8157322, “Gd(III)–Pt(IV) theranostic contrast agents for tandem MR imaging and chemotherapy” (Chemical Science, 2020).

What was measured:
[1] = test system: HeLa cells; assay: Cell viability assay (CellTiter-Glo 2.0); type: cell-based; conditions: 48 h incubation
Experimental: (§1) To assess the cytotoxicity of GP1 and GP2in vitro, cell viability assays were performed to determine the IC50 concentrations in three cancer cell lines (A2780, HeLa, and MCF-7). Table 2 summarizes the IC50 concentrations of both agents compared to those of cisplatin and carboplatin. […] For all cell lines, GP1 was less toxic than cisplatin but followed the same trend of highest toxicity in A2780 cells and least toxic in MCF-7 cells. GP1 releases cisplatin intracellularly, therefore the apparent difference in toxicity of the two is likely due to decreased cell permeability of GP1 caused by the Gd(III) complex. However, because GP1 is inert in the extracellular matrix, higher doses can be safely administered to account for the decreased cell permeability. […]
(§2) lines were grown in a humidified incubator at 37 °C and 5% CO2 and were harvested using 0.25% TrypLE. Cells were grown for 24 hours after plating before each experiment. All solutions were filtered through […] sterile filters before use.
(§3) Viability Assays. A2780, HeLa, and MCF-7 cells were plated at a density of 3,000 cells per well (100 µL) in an opaque white 96-well plate. Cells were dosed with 100 µL of solutions of GP1, GP2, cisplatin, or carboplatin in MEM and incubated for 48 hours (GP1 or cisplatin) or 72 hours (GP2 or carboplatin). After incubation, 50 µL CellTiter-Glo 2.0 (Promega, Madison, WI) was added to each well and the assay was carried out following the manufacturer’s protocol.
(§4) Luminescence of the wells was measured using a Synergy H1 microplate reader (BioTek, Winooski, VT). Viability was determined by comparing luminescence readings of the cells treated with agent to untreated control cells. […]

[2] = test system: MCF-7 cells; assay: Cell viability assay (CellTiter-Glo 2.0); type: cell-based; conditions: MCF-7, 48 h incubation
Experimental: as §1, §2, §3, §4

[3] = test system: A2780 cells; assay: Cell viability assay (CellTiter-Glo 2.0); type: cell-based; conditions: A2780, 48 h incubation
Experimental: as §1, §2, §3, §4

[4] = test system: porcine liver esterase (PLE); assay: Stability in porcine liver esterase in PBS (HPLC-MS); type: in vitro ADME; conditions: PBS with 10 units/mL porcine liver esterase, 37 °C
Experimental: To ensure both agents remain stable in aqueous media under various conditions, they were dissolved in PBS, two types of cell culture media (MEM and RPMI-1640), pH 5 H2O, and porcine live esterase (PLE) in PBS and monitored over time by HPLC-MS. […]
Stability of GP1 and GP2 in various aqueous media. Aliquots of GP1 and GP2 were prepared from a stock with known mass checked by ICP-MS. An aliquot of each was dissolved in H2O and analyzed by HPLC-MS using an Atlantis C18 column (4.6 × 250 mm, 5 μm) and the following method: MeCN held at 0% for 3 min followed by a 15 min ramp to 100% MeCN (GP1 retention time: 10.9 min, GP2 retention time: 11.6 min). Aliquots of both were additionally dissolved in PBS, MEM, RPMI-1640, pH 5 H2O, PBS with 10 units/mL porcine liver esterase, 5 mM glutathione, and 5 mM sodium ascorbate, incubated in a shaker at 37 °C, and were analyzed by HPLC-MS at different time points using the same method. At each time point, the area of the peak of GP1 or GP2 was determined by integration and compared to the area of the peaks in […]

[5] = test system: HeLa cells; assay: MR imaging of cell pellets at 7 T; type: cell-based; conditions: 6 h incubation, cisplatin 15 μM, 1 100 μM, GP1 60 μM, GP2 250 μM
[6] = test system: A2780 cells; assay: MR imaging of cell pellets at 7 T; type: cell-based; conditions: A2780, 7 T, 6 h incubation; cisplatin 7.5 μM, 1 100 μM, GP1 30 μM, GP2 60 μM
[7] = Relaxivity after incubation in 5 mM GSH in PBS; type: physicochemical; conditions: 1.41 T, PBS with 5 mM glutathione, 37 °C
Experimental: This is possibly due to an increase in the rotational correlation time (τR) or a change in the inner sphere hydration number (q) of Gd(III). The differences in relaxivity of GP1 and GP2 compared to 1 offers the possibility of monitoring reduction of the agents by MR at both high and low field strength. To test this, GP1, GP2, and 1 were incubated in 5 mM GSH in PBS and the relaxivity was measured (see ESI ^†). The relaxivity of each converged to the same value (r1 of 4.4, 4.5, and 4.6 mM^−1 s^−1 for 1, GP1, and GP2 respectively), indicating the same Gd(III) species was formed after reduction. The significant change in r1 upon reduction of GP1 and GP2 theoretically could be used to monitor intracellular reduction by MR. However, further testing needs to be done to determine if these agents are suitable for this application.
Fig. S2 Graph of r1 of (A) GP1 measured at 1.41 T (B) GP1 measured at 7 T (C) GP2 measured at 1.41 T
(D) GP2 measured at 7 T (E) 1 measured at 1.41 T (F) 1 measured at 7 T. All measurements were taken
in PBS at 37 °C (G) 1 measured at 1.41 T with 5 mM GSH (H) GP1 measured at 1.41 T with 5 mM GSH
and (I) GP2 measured at 1.41 T with 5 mM GSH.
Table S1. r1 of GP1, GP2, and 1 in PBS with 5 mM glutathione at 37 °C
GP1 (5 mM GSH) GP2 (5 mM GSH) 1 (5 mM GSH)

IC50 [1]: 49.3 ± 1.3 µM | IC50 [2]: 113 ± 4 µM | IC50 [3]: 29.8 ± 2.5 µM | Decrease in stability in presence of PLE [4]: ~10% | r1 with 5 mM GSH [7]: 4.5 mM⁻¹ s⁻¹
SMILES: [NH2][Pt]([NH2])([OH])([Cl])([Cl])[O]C(=O)CCCCCN1CCN2CCN3CCN(CC1)CC(=O)[O][Gd]([O]C(=O)C2)[O]C(=O)C3 [GP1]
T1 of cell pellet [5]: 1557 ± 17 ms | Δ R1 (increase in R1 vs untreated control) [5]: 48% | T1 of cell pellet [6]: 1708 ± 27 ms | Δ R1 (increase in R1 vs untreated control) [6]: 36%
